Patent US20140309171A1, “MARKER FOR BLOOD COAGULATION” (Universite Catholique De Louvain, priority 2011, published 2014)
“Also recorded” adds a separate entry of the source.

What was measured:
Assay type in all cases: cell-based
[1] = system: activated conformation of αIIbβ3 on human platelets; experiment: Flow cytometry, PAC-1 binding; settings: 0.025 U/ml thrombin, 10 μM STO-609
Procedure: Flow cytometric analysis was performed on a FACScan (Becton Dickinson). Washed human platelets (2·10^5 platelets/μl) were pre-incubated with DMSO/STO-609 for 2 min and then treated with or without thrombin (0.025 U/ml) in the presence of excessive amounts of FITC-conjugated monoclonal antibody (anti-CD62P (BD Biosciences) or PAC-1 (BD Biosciences)) at room temperature. The samples were then fixed at 4° C. for 30 min with 2% paraformaldehyde. The levels of P-selectin expression and PAC1 binding were expressed as the percentages of cells positive for anti-CD62P and PAC-1, respectively. The negative cut-off for each antibody was set using resting platelets that gave less than 5% of cells positive for binding of anti-CD62P or PAC-1. In addition to aggregation measurements, we examined by flow cytometry STO-609 effects on PAC-1 binding, an antibody specific for the activated conformation of αIIbβ3. Platelets were activated by 0.025 U/ml thrombin in the absence or presence of 10 μM STO-609.

washed human platelets = experiment: Platelet aggregation, light transmission (Chrono-Log Aggregometer)
Procedure: Washed human platelets (used in in vitro studies). Platelets were obtained from adult healthy volunteers in accordance with the Ethics Commission of our institution (Commission d'Ethique Biomédicale Hospitalo-Facultaire, Université catholique de Louvain). Whole blood was collected with butterfly needle 21G into Sodium Citrate 1:10 solution (S-monovette). Platelet-rich plasma (PRP) was obtained by 15 min centrifugation at 330 g. The platelets pellet was then washed in Tyrode modified buffer (135 mM NaCl, 12 mM NaHCO3, 1 mM Sodium Citrate, 2.9 mM KCl, 0.3 mM Na2HPO4, 1 mM MgCl2, 5 mM D-glucose, 10 mM Hepes, 0.35% bovine serum albumin (BSA), pH 7.4 at 37° C.) and resuspended to a density of 2.5 10^5 platelets/μl for the measurement of intracellular Ca^2+ or platelet aggregation. For Western Blot analysis, PRP with eptifibatide 4 μg/ml (Integriline, GlaxoSmithKline) and ectonucleotidase apyrase (grade I) 0.5 U/ml was layered over a density barrier of iodixanol (Optiprep®) that allowed the erythrocytes and leucocytes to pellet during centrifugation at 350 g for 15 min. The platelets, because of their small size, sediment much more slowly. After centrifugation at 800 g for 10 min, the resulting pellet was resuspended to a density of 2·10^5 platelets/μl in Tyrode modified buffer before treatment and lysis of samples.
Light transmission during thrombin-induced platelet aggregation in human and murine PRP was recorded with a Chrono-Log Aggregometer at 37° C., under stirring condition (1200 crpm). The platelet suspension was incubated with dimethyl sulfoxide (DMSO, vehicle) or STO-609 (10 μM, Tocris) for 2 min before the addition of the thrombin (+/−0.03 U/ml). CaCl2 2 mM was added prior to the agonists.
To evaluate the potential implication of CaMKKβ in platelet aggregation, washed human platelets were pre-incubated for 2 min with 10 μM STO-609, prior to treatment with thrombin or ADP.

[2] = system: TXB2 formation in human platelets; experiment: Thromboxane B2 assay in platelet supernatants; settings: 10 μM STO-609, 0.1 U/ml thrombin for 5 min
Procedure: After 2 min pre-incubation with 10 μM STO-609 or DMSO, washed platelets were treated with 0.1 U/ml thrombin for 5 min. Negative controls corresponded to platelets activated by thrombin in the presence of 1 mM acetylsalicylic acid (ASA). Platelet suspensions were pelleted (quick speed), and TXB2 in the supernatants was assayed according to the manufacturers instructions (Enzo Life Sciences).

[3] = system: intracellular Ca2+ in human platelets; experiment: Cytosolic Ca2+ measurement in fluo-3-loaded platelets; settings: 10 μM STO-609, 0.1 U/ml thrombin, 1 mM extracellular Ca2+
Procedure: Platelets pelleted from the platelet-rich plasma were suspended in Ca^2+-free modified Tyrode's buffer and then incubated with 3 μM flou-3/acetoxymethyl ester (Santa Cruz Biotechnology) at 37° C. for 30 min. Probenecid 2.5 mM (Sigma-Aldrich) was added to the buffer throughout the experiments to prevent leakage of the dye. After 2 washings, fluo-3-loaded platelets were suspended in modified Tyrode's buffer at a concentration of 2 10^7 platelets/ml. They were then pre-incubated with 10 μM STO-609 in the presence of 1 mM extracellular Ca^2+ with stirring at 37° C. for 2 min before the addition of thrombin (0.1 U/ml). Fluorescence (excitation 505 nm, emission 530 nm) was measured with a spectrophotometer (AMINCO SPF500). Ca^2+ concentration as estimated as follows: Kd* (F−Fmin)/(Fmax−Fmin), where the Kd of Fluo-3 is ([…] at 37° C.). The minimal fluorescence (Fmin) is the fluorescence in the absence of Ca^2+ and Fmax is the fluorescence determined with ionomycin 1 μM.

[4] = system: myosin light chain (MLC) Ser 19 phosphorylation; experiment: Western blot of MLC Ser19 phosphorylation in human platelets; settings: 0.1 U/ml thrombin, pre-incubation with STO-609
Procedure: Washed human platelets (used in in vitro studies). Platelets were obtained from adult healthy volunteers in accordance with the Ethics Commission of our institution (Commission d'Ethique Biomédicale Hospitalo-Facultaire, Université catholique de Louvain). Whole blood was collected with butterfly needle 21G into Sodium Citrate 1:10 solution (S-monovette). Platelet-rich plasma (PRP) was obtained by 15 min centrifugation at 330 g. The platelets pellet was then washed in Tyrode modified buffer (135 mM NaCl, 12 mM NaHCO3, 1 mM Sodium Citrate, 2.9 mM KCl, 0.3 mM Na2HPO4, 1 mM MgCl2, 5 mM D-glucose, 10 mM Hepes, 0.35% bovine serum albumin (BSA), pH 7.4 at 37° C.) and resuspended to a density of 2.5 10^5 platelets/μl for the measurement of intracellular Ca^2+ or platelet aggregation. […]
Proteins were separated as described (Miranda et al. 2010. J Clin Invest 103(6): 879-887). […] Bound antibodies were detected by enhanced chemiluminescence (Thermofisher). […] Band intensities were quantified by scanning and processing image intensities with the program ImageJ (1.33 for Mac OS X). The quantification of immunoblots presented in results was obtained after normalization using the internal loading control.

O=C(O)c1ccc2c3c1cccc3c(=O)n1c3ccccc3nc21 [STO-609]
PAC-1 binding in response to thrombin [1]: significantly inhibited | platelet aggregation caused by ADP (effect in words) (washed human platelets; 20 μM ADP, 10 μM STO-609): not inhibited | thrombin-induced platelet aggregation, % of aggregation (washed human platelets; 0.025 U/ml thrombin + 10 μM STO-609, 2 min pre-incubation): 11±4% | thrombin-induced platelet aggregation (effect in words) (washed human platelets; 0.025 U/ml thrombin, 10 μM STO-609): significantly inhibited; also recorded: prevents | thrombin-induced TXB2 formation [2]: not affect | rise in Ca2+ concentration in response to thrombin [3]: did not modify | thrombin-induced MLC phosphorylation, effect of pre-incubation [4]: decreased significantly; also recorded: prevents
